Measurements published in ChEMBL document CHEMBL1909046, “DrugMatrix in vitro pharmacology data”.

Experiments:
[1] = molecular target: T1, 5-hydroxytryptamine receptor 1A (Rattus norvegicus, UniProt P19327); assay type: cell membranes, CHO-K1, Membrane; also: in other assays of this panel Not Active means under 50% inhibition at 10 µM
T1 sequence (P19327 whole entry): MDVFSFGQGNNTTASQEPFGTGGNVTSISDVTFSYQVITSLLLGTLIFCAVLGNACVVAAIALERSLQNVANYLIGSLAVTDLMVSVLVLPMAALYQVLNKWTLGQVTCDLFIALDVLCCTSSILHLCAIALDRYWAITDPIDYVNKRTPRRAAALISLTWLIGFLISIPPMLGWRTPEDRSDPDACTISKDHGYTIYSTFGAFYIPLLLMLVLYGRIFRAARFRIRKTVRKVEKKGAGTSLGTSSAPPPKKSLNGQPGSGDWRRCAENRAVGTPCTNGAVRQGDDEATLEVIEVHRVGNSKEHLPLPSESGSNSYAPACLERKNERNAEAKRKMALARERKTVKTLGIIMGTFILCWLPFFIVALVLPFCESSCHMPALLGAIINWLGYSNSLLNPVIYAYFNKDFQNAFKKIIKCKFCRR

[2] = molecular target: T2, Alpha-1D adrenergic receptor (Homo sapiens, UniProt P25100); assay type: cell membranes, HEK293, Membrane; also: in other assays of this panel Not Active means under 50% inhibition at 10 µM
T2 sequence (P25100 whole entry): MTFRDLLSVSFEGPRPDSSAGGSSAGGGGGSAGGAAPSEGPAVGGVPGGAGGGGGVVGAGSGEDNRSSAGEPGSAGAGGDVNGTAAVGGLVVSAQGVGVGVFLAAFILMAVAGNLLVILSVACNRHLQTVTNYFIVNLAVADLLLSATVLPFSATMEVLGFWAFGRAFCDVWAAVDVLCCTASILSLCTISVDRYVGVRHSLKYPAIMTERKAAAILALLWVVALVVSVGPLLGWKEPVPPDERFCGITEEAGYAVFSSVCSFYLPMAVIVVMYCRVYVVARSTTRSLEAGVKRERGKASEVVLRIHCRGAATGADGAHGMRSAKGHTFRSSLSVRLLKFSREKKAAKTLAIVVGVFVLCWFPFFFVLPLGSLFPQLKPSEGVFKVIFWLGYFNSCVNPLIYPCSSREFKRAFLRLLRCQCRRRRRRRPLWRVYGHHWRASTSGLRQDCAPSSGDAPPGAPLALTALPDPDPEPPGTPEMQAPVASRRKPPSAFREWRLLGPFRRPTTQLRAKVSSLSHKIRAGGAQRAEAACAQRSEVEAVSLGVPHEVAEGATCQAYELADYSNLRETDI

[3] = molecular target: Sodium-dependent dopamine transporter (Homo sapiens, UniProt Q01959); assay: DRUGMATRIX: Dopamine Transporter radioligand binding (ligand: [125I] RTI-55); assay type: cell membranes, CHO-K1, Membrane; details: cho-k1; Not Active = under 50% inhibition at 10 µM
[4] = DRUGMATRIX: Potassium Channel [KATP] radioligand binding (ligand: [3H] Glyburide); assay type: cell membranes, Membrane; details: hit-t15; Not Active = under 50% inhibition at 10 µM
[5] = molecular target: Matrix metalloproteinase-9 (Homo sapiens, UniProt P14780); assay type: cell-based;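 also: inhibition of isolated MMP-9 enzyme activity toward a synthetic peptide substrate, from the DrugMatrix protease screening panel; in other assays of this panel Not Active means under 50% inhibition at 10 µM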
[6] = molecular target: Protein phosphatase 3 catalytic subunit alpha (Homo sapiens, UniProt Q08209); parameters: species or system Escherichia coli;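 also: inhibition of calcineurin (PP2B) enzyme activity, measured with DiFMUP as the substrate; in other assays of this panel Not Active means under 50% inhibition at 10 µM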

Sequence of Sodium-dependent dopamine transporter (Q01959 whole entry): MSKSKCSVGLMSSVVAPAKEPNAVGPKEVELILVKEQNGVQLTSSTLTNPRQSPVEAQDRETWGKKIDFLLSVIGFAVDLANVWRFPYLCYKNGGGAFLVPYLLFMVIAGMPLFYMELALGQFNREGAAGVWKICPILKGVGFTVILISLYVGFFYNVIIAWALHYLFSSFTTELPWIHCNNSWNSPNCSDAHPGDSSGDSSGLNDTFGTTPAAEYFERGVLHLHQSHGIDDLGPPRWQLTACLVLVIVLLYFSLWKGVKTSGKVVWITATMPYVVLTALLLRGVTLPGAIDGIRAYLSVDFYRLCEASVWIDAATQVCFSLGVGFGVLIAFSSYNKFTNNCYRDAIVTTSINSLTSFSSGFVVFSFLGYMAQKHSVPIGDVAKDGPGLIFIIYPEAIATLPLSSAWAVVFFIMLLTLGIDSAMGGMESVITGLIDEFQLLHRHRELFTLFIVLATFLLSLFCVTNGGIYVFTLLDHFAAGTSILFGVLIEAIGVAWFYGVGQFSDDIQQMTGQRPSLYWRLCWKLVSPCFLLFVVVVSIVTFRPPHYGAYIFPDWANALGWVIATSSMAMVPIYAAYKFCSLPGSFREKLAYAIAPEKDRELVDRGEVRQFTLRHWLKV
Sequence of Matrix metalloproteinase-9 (P14780 whole entry): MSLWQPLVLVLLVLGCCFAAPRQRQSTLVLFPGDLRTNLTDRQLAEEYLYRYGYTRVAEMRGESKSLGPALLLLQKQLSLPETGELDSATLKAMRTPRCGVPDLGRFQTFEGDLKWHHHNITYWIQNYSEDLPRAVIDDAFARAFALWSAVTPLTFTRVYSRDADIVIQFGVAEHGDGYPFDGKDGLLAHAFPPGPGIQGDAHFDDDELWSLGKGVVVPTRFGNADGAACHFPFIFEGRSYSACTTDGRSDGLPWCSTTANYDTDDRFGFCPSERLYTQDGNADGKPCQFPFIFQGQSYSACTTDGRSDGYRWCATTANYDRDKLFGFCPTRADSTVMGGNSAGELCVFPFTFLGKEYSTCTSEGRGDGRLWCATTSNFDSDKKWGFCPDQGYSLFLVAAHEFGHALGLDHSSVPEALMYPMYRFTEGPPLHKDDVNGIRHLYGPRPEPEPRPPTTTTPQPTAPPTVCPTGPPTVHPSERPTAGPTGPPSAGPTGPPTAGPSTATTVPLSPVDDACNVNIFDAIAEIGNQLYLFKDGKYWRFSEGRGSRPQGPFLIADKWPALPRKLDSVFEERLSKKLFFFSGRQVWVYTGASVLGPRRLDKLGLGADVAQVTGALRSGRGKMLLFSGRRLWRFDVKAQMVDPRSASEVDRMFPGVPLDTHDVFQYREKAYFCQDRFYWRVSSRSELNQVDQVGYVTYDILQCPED

Molecule	IC50 ([1]; cho-k1)	IC50 ([2]; hek293)	IC50 [3]	IC50 [4]	Ki [4]	IC50 [5]	IC50 [6]	IC50 ([1]; read-out: IC50) [nM]	Ki ([1]; read-out: Ki) [nM]	IC50 ([2]; read-out: IC50) [nM]	Ki ([2]; read-out: Ki) [nM]	Ki ([1]; cho-k1)	Ki ([2]; hek293)	Ki [3]	Ki [5]	Ki [6]
Cc1cccc(C)c1NC(=O)C1CCCCN1C (centres undefined) [MEPIVACAINE]	Not Active	Not Active	Not Active	Not Active	Not Active	Not Active	Not Active	–	–	–	–	–	–	–	–	–
CC1=NN(c2ccccc2)C(=O)C1 [EDARAVONE]	Not Active	Not Active	Not Active	Not Active	Not Active	Not Active	Not Active	–	–	–	–	–	–	–	–	–
CC(C)C[C@H]1C(=O)N2CCC[C@H]2[C@]2(O)O[C@](NC(=O)[C@@H]3C=C4c5cccc6[nH]cc(c56)C[C@H]4N(C)C3)(C(C)C)C(=O)N12 [ERGOCRYPTINE]	–	–	Not Active	Not Active	Not Active	Not Active	Not Active	2.63	1.5	48	24	–	–	–	–	–
Cc1cc(O)cc(C)c1Cl [CHLOROXYLENOL]	Not Active	Not Active	Not Active	Not Active	Not Active	Not Active	Not Active	–	–	–	–	–	–	–	–	–
CCOC(=O)c1ncn2c1CN(C)C(=O)c1cc(F)ccc1-2 [FLUMAZENIL]	Not Active	Not Active	Not Active	Not Active	Not Active	Not Active	Not Active	–	–	–	–	–	–	–	–	–
COBALTOUS CHLORIDE	Not Active	Not Active	Not Active	Not Active	Not Active	Not Active	Not Active	–	–	–	–	Not Active	Not Active	Not Active	Not Active	Not Active
COc1ccc2c(c1OC)C(=O)O[C@@H]2[C@H]1c2c(cc3c(c2OC)OCO3)CCN1C [NOSCAPINE]	Not Active	Not Active	Not Active	Not Active	Not Active	Not Active	Not Active	–	–	–	–	–	–	–	–	–
COLISTIN	Not Active	Not Active	Not Active	Not Active	Not Active	Not Active	Not Active	–	–	–	–	Not Active	Not Active	Not Active	Not Active	Not Active
CCN(C(C)=O)c1cccc(-c2ccnc3c(C#N)cnn23)c1 [ZALEPLON]	Not Active	Not Active	Not Active	Not Active	Not Active	Not Active	Not Active	–	–	–	–	–	–	–	–	–
CN1C(=O)CN=C(c2ccccc2)c2cc([N+](=O)[O-])ccc21 [NIMETAZEPAM]	Not Active	Not Active	Not Active	Not Active	Not Active	Not Active	Not Active	–	–	–	–	–	–	–	–	–
C[C@@H]1C/C=C/C=C/C=C/C=C/[C@H](O[C@@H]2O[C@H](C)[C@@H](O)[C@H](N)[C@@H]2O)C[C@@H]2O[C@](O)(C[C@@H](O)C[C@H]3O[C@@H]3/C=C/C(=O)O1)C[C@H](O)[C@H]2C(=O)O [NATAMYCIN]	Not Active	Not Active	Not Active	Not Active	Not Active	Not Active	Not Active	–	–	–	–	–	–	–	–	–
ClC(Cl)(Cl)Cl [CARBON TETRACHLORIDE]	Not Active	Not Active	Not Active	Not Active	Not Active	Not Active	Not Active	–	–	–	–	–	–	–	–	–
NC12CC3CC(CC(C3)C1)C2 [AMANTADINE]	Not Active	Not Active	Not Active	Not Active	Not Active	Not Active	Not Active	–	–	–	–	–	–	–	–	–
CC(C)c1c(C(=O)Nc2ccccc2)c(-c2ccccc2)c(-c2ccc(F)cc2)n1CC[C@@H](O)C[C@@H](O)CC(=O)O [ATORVASTATIN]	Not Active	Not Active	Not Active	Not Active	Not Active	Not Active	Not Active	–	–	–	–	–	–	–	–	–
CN(C)CCC=C1c2ccccc2CCc2ccccc21 [AMITRIPTYLINE]	–	–	Not Active	Not Active	Not Active	Not Active	Not Active	2000	1140	105	52	–	–	–	–	–
